Test results published in ChEMBL document CHEMBL4507261, “Data for DCP probe A-192621” (2021).

Assays:
[1] = biological target: Sodium/potassium-transporting ATPase (Sus scrofa) (UniProt P05027+P05024+D2WKD8+D2WKD7+F1ST41); experiment: ATPase (Na+/K+) Eurofins-Cerep enzyme and uptake assay; type: protein-complex assay; conditions: Compound concentration 10.0 uM
[2] = biological target: Cannabinoid receptor 1 (Homo sapiens) (UniProt P21554); experiment: CB1 (h) Eurofins-Cerep binding assay; design: ligand concentration 0.5 nM; conditions: filed as agonist, Compound concentration 10.0 uM
[3] = biological target: Cannabinoid receptor 2 (Homo sapiens) (UniProt P34972); experiment: CB2 (h) Eurofins-Cerep binding assay; design: ligand concentration 0.8 nM; conditions: filed as agonist, Compound concentration 10.0 uM
[4] = biological target: Urotensin-2 receptor (Homo sapiens) (UniProt Q9UKP6); experiment: UT (h) Eurofins-Cerep binding assay; design: ligand concentration 0.1 nM; conditions: filed as agonist, Compound concentration 10.0 uM
[5] = system: Tyrosine-protein kinase ABL1 (Homo sapiens), P00519 [F317I]; conditions: Compound concentration 1000.0 nM
[6] = system: Tyrosine-protein kinase ABL1 (Homo sapiens), P00519 [Q252H]; conditions: Compound concentration 1000.0 nM
[7] = biological target: Activin receptor type-1 (Homo sapiens) (UniProt Q04771); conditions: Compound concentration 1000.0 nM
[8] = biological target: Activin receptor type-2A (Homo sapiens) (UniProt P27037); conditions: Compound concentration 1000.0 nM
[9] = biological target: Aurora kinase B (Homo sapiens) (UniProt Q96GD4); conditions: Compound concentration 1000.0 nM
[10] = biological target: Calcium/calmodulin-dependent protein kinase type 1G (Homo sapiens) (UniProt Q96NX5); conditions: Compound concentration 1000.0 nM
[11] = biological target: Calcium/calmodulin-dependent protein kinase type II subunit alpha (Homo sapiens) (UniProt Q9UQM7); conditions: Compound concentration 1000.0 nM
[12] = biological target: Dual specificity protein kinase CLK4 (Homo sapiens) (UniProt Q9HAZ1); conditions: Compound concentration 1000.0 nM
[13] = biological target: Casein kinase I isoform epsilon (Homo sapiens) (UniProt P49674); conditions: Compound concentration 1000.0 nM
[14] = biological target: Dual specificity tyrosine-phosphorylation-regulated kinase 2 (Homo sapiens) (UniProt Q92630); conditions: Compound concentration 1000.0 nM
[15] = biological target: Ephrin type-B receptor 1 (Homo sapiens) (UniProt P54762); conditions: Compound concentration 1000.0 nM
[16] = biological target: Receptor tyrosine-protein kinase erbB-3 (Homo sapiens) (UniProt P21860); conditions: Compound concentration 1000.0 nM
[17] = biological target: Mitogen-activated protein kinase 15 (Homo sapiens) (UniProt Q8TD08); conditions: Compound concentration 1000.0 nM
[18] = system: Receptor-type tyrosine-protein kinase FLT3 (Homo sapiens), P36888 [D835H]; conditions: Compound concentration 1000.0 nM
[19] = system: Receptor-type tyrosine-protein kinase FLT3 (Homo sapiens), P36888 [K663Q]; conditions: Compound concentration 1000.0 nM
[20] = biological target: Vascular endothelial growth factor receptor 3 (Homo sapiens) (UniProt P35916); conditions: Compound concentration 1000.0 nM
[21] = biological target: Mitogen-activated protein kinase kinase kinase kinase 1 (Homo sapiens) (UniProt Q92918); conditions: Compound concentration 1000.0 nM
[22] = biological target: Tyrosine-protein kinase JAK1 (Homo sapiens) (UniProt P23458); conditions: Compound concentration 1000.0 nM
[23] = biological target: Serine/threonine-protein kinase MAK (Homo sapiens) (UniProt P20794); conditions: Compound concentration 1000.0 nM
[24] = biological target: Mitogen-activated protein kinase kinase kinase 1 (Homo sapiens) (UniProt Q13233); conditions: Compound concentration 1000.0 nM
[25] = biological target: Mitogen-activated protein kinase kinase kinase kinase 2 (Homo sapiens) (UniProt Q12851); conditions: Compound concentration 1000.0 nM
[26] = biological target: Dual specificity mitogen-activated protein kinase kinase 2 (Homo sapiens) (UniProt P36507); conditions: Compound concentration 1000.0 nM
[27] = biological target: MAP kinase-interacting serine/threonine-protein kinase 2 (Homo sapiens) (UniProt Q9HBH9); conditions: Compound concentration 1000.0 nM
[28] = biological target: Serine/threonine-protein kinase MRCK alpha (Homo sapiens) (UniProt Q5VT25); conditions: Compound concentration 1000.0 nM
[29] = biological target: Serine/threonine-protein kinase Nek10 (Homo sapiens) (UniProt Q6ZWH5); conditions: Compound concentration 1000.0 nM
[30] = biological target: Serine/threonine-protein kinase PAK 3 (Homo sapiens) (UniProt O75914); conditions: Compound concentration 1000.0 nM
[31] = biological target: Phosphorylase b kinase regulatory subunit alpha, liver isoform (Homo sapiens) (UniProt P46019); conditions: Compound concentration 1000.0 nM
[32] = biological target: Phosphatidylinositol 3-kinase C2 domain-containing subunit gamma (Homo sapiens) (UniProt O75747); conditions: Compound concentration 1000.0 nM
[33] = biological target: Serine/threonine-protein kinase N1 (Homo sapiens) (UniProt Q16512); conditions: Compound concentration 1000.0 nM
[34] = biological target: Serine/threonine-protein kinase PknB (Mycobacterium tuberculosis) (UniProt P9WI81); conditions: Compound concentration 1000.0 nM
[35] = biological target: RAF proto-oncogene serine/threonine-protein kinase (Homo sapiens) (UniProt P04049); conditions: Compound concentration 1000.0 nM
[36] = biological target: Dual serine/threonine and tyrosine protein kinase (Homo sapiens) (UniProt Q6XUX3); conditions: Compound concentration 1000.0 nM
[37] = biological target: Rho-associated protein kinase 1 (Homo sapiens) (UniProt Q13464); conditions: Compound concentration 1000.0 nM
[38] = biological target: Ribosomal protein S6 kinase alpha-4 (Homo sapiens) (UniProt O75676); conditions: Compound concentration 1000.0 nM
[39] = biological target: Serine/threonine-protein kinase SBK1 (Homo sapiens) (UniProt Q52WX2); conditions: Compound concentration 1000.0 nM
[40] = biological target: STE20-like serine/threonine-protein kinase (Homo sapiens) (UniProt Q9H2G2); conditions: Compound concentration 1000.0 nM
[41] = biological target: STE20/SPS1-related proline-alanine-rich protein kinase (Homo sapiens) (UniProt Q9UEW8); conditions: Compound concentration 1000.0 nM
[42] = biological target: Non-receptor tyrosine-protein kinase TNK1 (Homo sapiens) (UniProt Q13470); conditions: Compound concentration 1000.0 nM
[43] = biological target: Non-receptor tyrosine-protein kinase TYK2 (Homo sapiens) (UniProt P29597); conditions: Compound concentration 1000.0 nM
[44] = biological target: Serine/threonine-protein kinase ULK1 (Homo sapiens) (UniProt O75385); conditions: Compound concentration 1000.0 nM

Chain of STE20-like serine/threonine-protein kinase (Homo sapiens) (Q9H2G2 whole entry, looked up): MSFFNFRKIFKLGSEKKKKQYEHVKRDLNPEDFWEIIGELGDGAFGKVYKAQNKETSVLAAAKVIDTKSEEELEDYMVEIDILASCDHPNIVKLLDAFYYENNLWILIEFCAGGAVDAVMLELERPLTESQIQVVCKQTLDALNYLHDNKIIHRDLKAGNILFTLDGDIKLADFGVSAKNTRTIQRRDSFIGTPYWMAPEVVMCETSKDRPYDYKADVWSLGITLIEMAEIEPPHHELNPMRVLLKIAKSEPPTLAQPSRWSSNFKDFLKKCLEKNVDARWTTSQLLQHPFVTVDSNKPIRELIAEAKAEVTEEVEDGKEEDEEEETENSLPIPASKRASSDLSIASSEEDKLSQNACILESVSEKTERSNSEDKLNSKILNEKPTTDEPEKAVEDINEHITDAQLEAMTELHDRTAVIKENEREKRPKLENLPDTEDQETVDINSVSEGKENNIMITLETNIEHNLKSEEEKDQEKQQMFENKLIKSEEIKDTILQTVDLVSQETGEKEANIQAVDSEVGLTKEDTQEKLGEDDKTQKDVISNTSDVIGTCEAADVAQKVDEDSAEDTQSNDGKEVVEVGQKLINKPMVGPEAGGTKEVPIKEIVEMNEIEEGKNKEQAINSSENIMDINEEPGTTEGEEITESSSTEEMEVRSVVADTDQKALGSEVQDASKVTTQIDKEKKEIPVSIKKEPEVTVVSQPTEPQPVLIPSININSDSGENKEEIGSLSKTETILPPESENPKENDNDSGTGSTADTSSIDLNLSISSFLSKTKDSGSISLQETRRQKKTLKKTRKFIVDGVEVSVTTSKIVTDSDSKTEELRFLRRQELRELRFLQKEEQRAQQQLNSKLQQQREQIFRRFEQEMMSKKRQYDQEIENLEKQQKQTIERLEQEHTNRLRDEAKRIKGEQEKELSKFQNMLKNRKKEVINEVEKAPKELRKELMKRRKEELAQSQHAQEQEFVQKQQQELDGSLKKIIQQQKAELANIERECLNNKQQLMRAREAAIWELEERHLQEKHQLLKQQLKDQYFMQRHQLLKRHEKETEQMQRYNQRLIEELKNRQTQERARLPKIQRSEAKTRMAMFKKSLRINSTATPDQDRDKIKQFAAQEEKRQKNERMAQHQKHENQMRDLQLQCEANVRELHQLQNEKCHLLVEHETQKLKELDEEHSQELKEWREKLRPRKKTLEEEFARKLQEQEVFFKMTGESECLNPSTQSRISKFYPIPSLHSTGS
Chain of Activin receptor type-1 (Homo sapiens) (Q04771 whole entry): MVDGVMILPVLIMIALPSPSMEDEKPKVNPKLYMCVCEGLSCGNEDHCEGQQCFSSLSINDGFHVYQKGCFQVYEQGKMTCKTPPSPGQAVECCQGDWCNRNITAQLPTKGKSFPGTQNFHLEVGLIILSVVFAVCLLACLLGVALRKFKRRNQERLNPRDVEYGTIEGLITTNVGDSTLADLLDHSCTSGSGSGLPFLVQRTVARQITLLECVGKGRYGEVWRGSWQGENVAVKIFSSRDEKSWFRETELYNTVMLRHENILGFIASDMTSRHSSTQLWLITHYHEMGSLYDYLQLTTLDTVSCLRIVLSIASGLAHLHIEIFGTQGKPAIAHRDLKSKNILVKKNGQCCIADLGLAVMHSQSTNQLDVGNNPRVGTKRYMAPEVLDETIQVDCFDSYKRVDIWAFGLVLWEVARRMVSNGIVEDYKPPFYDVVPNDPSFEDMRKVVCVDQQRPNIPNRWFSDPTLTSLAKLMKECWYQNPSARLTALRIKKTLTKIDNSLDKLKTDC
Chain of Urotensin-2 receptor (Homo sapiens) (Q9UKP6 whole entry): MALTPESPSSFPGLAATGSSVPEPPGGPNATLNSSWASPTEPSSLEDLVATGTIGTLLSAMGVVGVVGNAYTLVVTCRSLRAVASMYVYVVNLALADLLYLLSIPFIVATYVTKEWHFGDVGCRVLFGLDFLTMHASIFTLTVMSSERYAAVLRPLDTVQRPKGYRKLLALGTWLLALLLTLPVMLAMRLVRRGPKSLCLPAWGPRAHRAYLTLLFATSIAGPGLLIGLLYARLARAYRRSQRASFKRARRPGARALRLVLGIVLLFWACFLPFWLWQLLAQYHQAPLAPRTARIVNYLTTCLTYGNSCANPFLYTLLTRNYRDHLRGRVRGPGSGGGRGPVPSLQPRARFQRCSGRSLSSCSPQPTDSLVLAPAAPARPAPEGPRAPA
Chain of Serine/threonine-protein kinase PAK 3 (Homo sapiens) (O75914 whole entry, looked up, canonical isoform): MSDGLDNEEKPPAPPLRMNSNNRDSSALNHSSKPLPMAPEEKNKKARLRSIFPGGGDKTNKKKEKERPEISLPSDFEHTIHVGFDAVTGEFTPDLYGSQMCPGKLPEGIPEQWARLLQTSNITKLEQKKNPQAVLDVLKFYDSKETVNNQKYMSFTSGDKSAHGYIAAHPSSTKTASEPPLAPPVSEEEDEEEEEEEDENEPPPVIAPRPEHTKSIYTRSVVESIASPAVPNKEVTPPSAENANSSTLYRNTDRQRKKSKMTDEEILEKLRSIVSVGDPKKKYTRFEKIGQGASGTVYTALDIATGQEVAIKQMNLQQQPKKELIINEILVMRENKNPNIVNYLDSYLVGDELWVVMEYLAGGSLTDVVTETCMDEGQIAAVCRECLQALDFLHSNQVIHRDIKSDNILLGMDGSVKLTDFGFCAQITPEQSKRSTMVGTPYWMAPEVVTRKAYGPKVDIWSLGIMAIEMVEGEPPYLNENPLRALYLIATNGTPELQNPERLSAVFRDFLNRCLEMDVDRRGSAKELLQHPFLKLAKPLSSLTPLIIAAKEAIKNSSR
Chain of Dual specificity protein kinase CLK4 (Homo sapiens) (Q9HAZ1 whole entry, looked up, canonical isoform): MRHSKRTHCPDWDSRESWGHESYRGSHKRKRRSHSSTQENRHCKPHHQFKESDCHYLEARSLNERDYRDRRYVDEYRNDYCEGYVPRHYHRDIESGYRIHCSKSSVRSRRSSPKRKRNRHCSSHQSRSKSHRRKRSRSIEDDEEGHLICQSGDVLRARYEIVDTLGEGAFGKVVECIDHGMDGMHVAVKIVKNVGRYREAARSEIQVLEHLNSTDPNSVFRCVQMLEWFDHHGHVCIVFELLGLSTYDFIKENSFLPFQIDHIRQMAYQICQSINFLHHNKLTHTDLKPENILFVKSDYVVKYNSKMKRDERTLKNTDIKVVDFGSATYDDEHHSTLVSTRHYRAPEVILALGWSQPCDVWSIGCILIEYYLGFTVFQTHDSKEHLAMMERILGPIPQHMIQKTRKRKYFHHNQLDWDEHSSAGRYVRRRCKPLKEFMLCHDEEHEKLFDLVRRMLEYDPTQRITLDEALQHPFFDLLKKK
Chain of Rho-associated protein kinase 1 (Homo sapiens) (Q13464 2-1354 limits assumed): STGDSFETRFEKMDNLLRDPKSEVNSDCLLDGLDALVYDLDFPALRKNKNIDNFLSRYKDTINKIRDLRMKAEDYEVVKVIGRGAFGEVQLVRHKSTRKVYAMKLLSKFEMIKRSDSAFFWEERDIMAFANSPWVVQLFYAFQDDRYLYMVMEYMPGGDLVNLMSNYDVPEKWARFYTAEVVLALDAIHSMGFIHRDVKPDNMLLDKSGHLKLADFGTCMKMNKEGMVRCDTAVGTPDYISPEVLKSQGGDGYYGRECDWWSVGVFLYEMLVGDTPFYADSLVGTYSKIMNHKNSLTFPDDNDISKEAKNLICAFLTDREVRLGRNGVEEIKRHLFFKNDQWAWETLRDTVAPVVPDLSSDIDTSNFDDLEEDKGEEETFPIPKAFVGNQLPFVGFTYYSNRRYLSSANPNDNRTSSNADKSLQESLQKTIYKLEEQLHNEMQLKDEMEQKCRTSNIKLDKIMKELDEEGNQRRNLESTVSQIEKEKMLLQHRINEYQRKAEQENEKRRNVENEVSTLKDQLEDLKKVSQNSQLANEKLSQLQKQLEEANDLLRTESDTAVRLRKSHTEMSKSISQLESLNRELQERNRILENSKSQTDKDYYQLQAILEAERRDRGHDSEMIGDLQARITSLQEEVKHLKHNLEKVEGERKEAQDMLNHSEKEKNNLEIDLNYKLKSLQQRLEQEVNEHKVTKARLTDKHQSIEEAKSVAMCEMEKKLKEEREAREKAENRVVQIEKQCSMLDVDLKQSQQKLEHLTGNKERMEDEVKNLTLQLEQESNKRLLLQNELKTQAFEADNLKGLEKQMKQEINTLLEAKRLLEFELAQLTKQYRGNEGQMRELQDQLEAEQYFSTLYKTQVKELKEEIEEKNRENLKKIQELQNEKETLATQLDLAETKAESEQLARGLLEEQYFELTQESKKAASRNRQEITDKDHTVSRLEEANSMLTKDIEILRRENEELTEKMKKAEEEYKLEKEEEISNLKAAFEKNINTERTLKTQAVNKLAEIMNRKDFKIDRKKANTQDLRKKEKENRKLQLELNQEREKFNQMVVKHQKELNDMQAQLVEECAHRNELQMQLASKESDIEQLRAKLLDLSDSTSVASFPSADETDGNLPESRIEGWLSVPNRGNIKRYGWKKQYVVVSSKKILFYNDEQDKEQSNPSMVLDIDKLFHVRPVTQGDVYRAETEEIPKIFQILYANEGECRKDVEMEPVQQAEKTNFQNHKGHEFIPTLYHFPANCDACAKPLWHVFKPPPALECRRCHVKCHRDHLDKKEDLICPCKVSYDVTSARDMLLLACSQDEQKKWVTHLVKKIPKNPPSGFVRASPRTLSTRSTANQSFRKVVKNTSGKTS
Chain of Calcium/calmodulin-dependent protein kinase type II subunit alpha (Homo sapiens) (Q9UQM7 whole entry): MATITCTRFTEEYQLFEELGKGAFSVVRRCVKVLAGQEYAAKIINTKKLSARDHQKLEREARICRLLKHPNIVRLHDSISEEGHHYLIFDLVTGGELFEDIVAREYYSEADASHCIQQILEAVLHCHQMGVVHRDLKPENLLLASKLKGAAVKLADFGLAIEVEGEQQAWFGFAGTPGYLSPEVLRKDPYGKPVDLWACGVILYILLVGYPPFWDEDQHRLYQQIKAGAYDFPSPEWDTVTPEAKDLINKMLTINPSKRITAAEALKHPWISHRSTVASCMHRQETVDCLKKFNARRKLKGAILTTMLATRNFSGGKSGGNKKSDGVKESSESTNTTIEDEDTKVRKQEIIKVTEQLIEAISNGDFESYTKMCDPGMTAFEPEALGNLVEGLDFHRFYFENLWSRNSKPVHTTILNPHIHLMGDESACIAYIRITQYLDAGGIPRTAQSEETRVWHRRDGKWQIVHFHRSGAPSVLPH

`CCCOc1ccc([C@H]2[C@H](C(=O)O)[C@@H](c3ccc4c(c3)OCO4)CN2CC(=O)Nc2c(CC)cccc2CC)cc1` [A-192621] showed a % Inhibition of Control Values (Mean n=2) [1] of 0.7%, a % Inhibition of Control Specific Binding (Mean n=2) [2] of 15.4% and a % Inhibition of Control Specific Binding (Mean n=2) [3] of 33.6%. It also gave a % Inhibition of Control Specific Binding (Mean n=2) [4] of 23.9%, a residual activity [5] of 71% and a residual activity [6] of 61%. For the same molecule, the residual activity [7] was 100%, the residual activity [8] was 100% and the residual activity [9] was 72%. For the same molecule, the residual activity [10] was 90%, the residual activity [11] was 90% and the residual activity [12] was 100%. It also gave a residual activity [13] of 100%, a residual activity [14] of 74% and a residual activity [15] of 100%. The residual activity [16] was 78%, the residual activity [17] was 100% and the residual activity [18] was 92%. The residual activity [19] was 100%, the residual activity [20] was 90% and the residual activity [21] was 92%. For the same molecule, the residual activity [22] was 95%, the residual activity [23] was 97% and the residual activity [24] was 71%. For the same molecule, the residual activity [25] was 79%, the residual activity [26] was 62% and the residual activity [27] was 74%. The residual activity [28] was 94%, the residual activity [29] was 82% and the residual activity [30] was 100%. The residual activity [31] was 86%, the residual activity [32] was 75% and the residual activity [33] was 87%. For the same molecule, the residual activity [34] was 78%, the residual activity [35] was 98% and the residual activity [36] was 73%. The residual activity [37] was 65%, the residual activity [38] was 68% and the residual activity [39] was 78%. For the same molecule, the residual activity [40] was 100%, the residual activity [41] was 58% and the residual activity [42] was 100%. It also gave a residual activity [43] of 51% and a residual activity [44] of 68%.

`CCCOc1ccc([C@@H]2[C@@H](C(=O)O)[C@H](c3ccc4c(c3)OCO4)CN2CC(=O)Nc2c(CC)cccc2CC)cc1` [A-1806262] was tested, and the % Inhibition of Control Values (Mean n=2) [1] was 0.6%, the % Inhibition of Control Specific Binding (Mean n=2) [2] was -1.6% and the % Inhibition of Control Specific Binding (Mean n=2) [3] was 14.6%. The % Inhibition of Control Specific Binding (Mean n=2) [4] was 9.4%, the residual activity [5] was 83% and the residual activity [6] was 92%. For the same molecule, the residual activity [7] was 95%, the residual activity [8] was 100% and the residual activity [9] was 77%. The residual activity [10] was 89%, the residual activity [11] was 100% and the residual activity [12] was 89%. For the same molecule, the residual activity [13] was 98%, the residual activity [14] was 92% and the residual activity [15] was 91%. For the same molecule, the residual activity [16] was 84%, the residual activity [17] was 100% and the residual activity [18] was 100%. It also gave a residual activity [19] of 100%, a residual activity [20] of 100% and a residual activity [21] of 92%. For the same molecule, the residual activity [22] was 100%, the residual activity [23] was 93% and the residual activity [24] was 80%. The residual activity [25] was 98%, the residual activity [26] was 89% and the residual activity [27] was 87%. It also gave a residual activity [28] of 90%, a residual activity [29] of 96% and a residual activity [30] of 77%. The residual activity [31] was 74%, the residual activity [32] was 78% and the residual activity [33] was 100%. It also gave a residual activity [34] of 98%, a residual activity [35] of 100% and a residual activity [36] of 82%. It also gave a residual activity [37] of 81%, a residual activity [38] of 90% and a residual activity [39] of 81%. The residual activity [40] was 100%, the residual activity [41] was 78% and the residual activity [42] was 93%. It also gave a residual activity [43] of 74% and a residual activity [44] of 77%.
